From article PMC5735191, “Computational and biological profile of boronic acids for the detection of bacterial serine- and metallo-β-lactamases” (Scientific Reports, 2017)
Several values for one entry are separate records, joined by “and”; a condition that tells them apart may be missing. Equal values may be shown once.

Experiments:
[1] = system: KPC-2 K. pneumoniae clinical isolate; assay: Susceptibility testing (MIC), synergy with cefotaxime; assay type: cell-based; details: for MIC of cefotaxime (CTX) in combination with compound: KPC-2 K. pneumoniae, antibiotic:inhibitor 1:1 (w/w)
Method: (§1) The minimum inhibitory concentrations (MICs), for CAZ and CTX alone and in combination with boronic acids against resistant strains were determined (Table 2a,b).
(§2) Susceptibility testing was performed in Mueller Hinton broth and interpreted following the guidelines of the National Committee for Clinical Laboratory Standards[70]. To test the inhibitory activity, the compounds were dissolved in DMSO, 50% in water, and further dilutions were performed using growth medium. In all cases tests were performed at a final DMSO concentration below 5%, avoiding unwanted DMSO inhibition effect on strains growth (blank test control with DMSO were performed). The MICs of cefotaxime and ceftazidime alone and in association were determined against several relevant Gram-negative clinical isolates, selected from the pathogen collection of the Spanish Network for Research in Infectious Pathology (REIPI; Spain). The selection was based on strains capability of producing β-lactamases of interest for the present study. The antibiotic:inhibitor ratio was 1:1 (w/w).

[2] = system: NDM-1 E. coli clinical isolate; assay: as above; assay type: cell-based; details: antibiotic:inhibitor 1:1 (w/w)
Method: as §1, §2

[3] = system: OXA-24 A. baumanii clinical isolate; assay: as above; assay type: cell-based; details: antibiotic:inhibitor 1:1 (w/w)
Method: as §1, §2

[4] = system: VIM-2 P. aeruginosa clinical isolate; assay: as above; assay type: cell-based; details: antibiotic:inhibitor 1:1 (w/w)
Method: as §1, §2

[5] = system: CTX-M-15 E. coli clinical isolate; assay: as above; assay type: cell-based; details: for MIC of cefotaxime (CTX) in combination with compound: CTX-M-15 E. coli, antibiotic:inhibitor 1:1 (w/w)
Method: as §1, §2

[6] = target: NDM-1 (Klebsiella pneumoniae, UniProt C7C422); assay: Enzyme inhibition assay (spectrophotometric, cephalothin reporter substrate); assay type: biochemical; parameters: His-tag; made in house; host or cells: E. coli BL21(DE3), pET-15-NDM-1; details: mean of two replicates, five inhibitor concentrations, Dixon plot; pH 7.5, 25 °C
Method: (§3) To obtain a well-characterized inhibition profile for each selected boronic acids against each BLs in the panel, the compounds were tested for inhibitory activity. The protein panel included clinically- and epidemiologically-relevant β-lactamases, representatives of each structural class (A to D), as mentioned above. Each BL was overexpressed in E. coli, purified by chromatography and characterized as already reported. (SI, Table S1)[40]–[45].
(§4) Reactions were initiated with addition of BL enzyme (the concentration values for each BL enzyme into the SI, Table S1 have been reported).

[7] = target: T1, OXA-24 (Acinetobacter baumannii, UniProt Q8RLA6); assay: as above; assay type: biochemical
T1 construct: GST (N, cleaved yes); made in house; host or cells: E. coli DH5α, pGEX-2T-OXA-24
Method: as §3, §4
(§5) From the resulting inhibition percentages at each different inhibitor concentration and, assuming a competitive inhibition for the boronic compounds panel, it was possible to calculate the IC50 values from the Dixon plot 1/V vs [I], using the equation IC50 = […][61], where v0 is the rate of hydrolysis of the reporter substrate (v0 being the rate measured in the absence of inhibitor), q the y axis intercept and m the slope of the resulting linear regression.

[8] = target: T2, CTX-M-15 (Escherichia coli, UniProt Q9EXV5); assay: as above; assay type: biochemical; details: IC50 CTX-M-15, mean of two replicates, five inhibitor concentrations, Dixon plot; pH 7.5, 25 °C
T2 construct: made in house; host or cells: E. coli BL21(DE3), pET-9a derivative (pET-CTX-M-15)
Method: as §3, §4, §5

[9] = target: VIM-2 (Escherichia coli, UniProt Q5U7L7); assay: as above; assay type: biochemical; parameters: made in house; host or cells: E. coli BL21(DE3), pET9-VIM-2; details: mean of two replicates, five inhibitor concentrations, Dixon plot; pH 7.5, 25 °C
Method: as §3, §4

[10] = target: T3, AmpC β-lactamase (Pseudomonas aeruginosa, UniProt P24735); assay: as above; assay type: biochemical, P. aeruginosa; details: mean of two replicates, five inhibitor concentrations, Dixon plot, 100 μM cephalothin, pH 7.5, 25 °C
T3 construct: made in house; host or cells: E. coli BL21(DE3), plasmid pET-9aAmpC
Method: as §3, §4, §5

[11] = system: E. coli clinical isolate, plasmidic AmpC - DHA1; assay: Susceptibility testing (MIC), synergy with ceftazidime; assay type: cell-based; details: for MIC of ceftazidime (CAZ) in combination with compound: E. coli, plasmidic AmpC - DHA1, antibiotic:inhibitor 1:1 (w/w)
Method: as §1, §2

[12] = system: E. coli clinical isolate, overproduction chromosomal AmpC; assay: as above; assay type: cell-based; details: antibiotic:inhibitor 1:1 (w/w)
Method: as §1, §2

[13] = system: P. aeruginosa 49, overproduction chromosomal AmpC; assay: as above; assay type: cell-based; details: antibiotic:inhibitor 1:1 (w/w)
Method: as §1, §2

[14] = system: P. aeruginosa 120, overproduction chromosomal AmpC; assay: as above; assay type: cell-based; details: antibiotic:inhibitor 1:1 (w/w)
Method: as §1, §2

[15] = system: E. aerogenes clinical isolate, overproduction chromosomal AmpC; assay: as above; assay type: cell-based; details: antibiotic:inhibitor 1:1 (w/w)
Method: as §1, §2

[16] = system: E. cloacae clinical isolate, overproduction chromosomal AmpC; assay: as above; assay type: cell-based; details: for MIC of ceftazidime (CAZ) in combination with compound: overproduction chromosomal AmpC, antibiotic:inhibitor 1:1 (w/w)
Method: as §1, §2

[17] = system: P. aeruginosa 199, overproduction chromosomal AmpC; assay: as above; assay type: cell-based; details: antibiotic:inhibitor 1:1 (w/w)
Method: as §1, §2

[18] = system: P. aeruginosa 148, overproduction chromosomal AmpC; assay: as above; assay type: cell-based; details: antibiotic:inhibitor 1:1 (w/w)
Method: as §1, §2

[19] = system: P. aeruginosa 12, overproduction chromosomal AmpC; assay: as above; assay type: cell-based; details: antibiotic:inhibitor 1:1 (w/w)
Method: as §1, §2

[20] = target: T4, KPC-2 (Klebsiella pneumoniae, UniProt Q9F663); assay: Enzyme inhibition assay (spectrophotometric, cephalothin reporter substrate); assay type: biochemical; details: mean of two replicates, five inhibitor concentrations, Dixon plot; pH 7.5, 25 °C
T4 construct: made in house; host or cells: E. coli BL21(DE3), pET9-KPC2
Method: as §3, §4

[21] = system: CC(=O)OCC1=C(C(=O)O)N2C(=O)[C@@H](NC(=O)Cc3cccs3)[C@H]2SC1; assay: purified protein, by the assay type; details: 37.0 °C
[22] = other: β-lactam substrate of AmpC, enzyme 0.019 µM
[23] = other: β-lactam substrate of CTX-M-15, enzyme 0.067 µM
[24] = other: β-lactam substrate of OXA-24, enzyme 0.035 µM

T3 sequence (P24735 27-397): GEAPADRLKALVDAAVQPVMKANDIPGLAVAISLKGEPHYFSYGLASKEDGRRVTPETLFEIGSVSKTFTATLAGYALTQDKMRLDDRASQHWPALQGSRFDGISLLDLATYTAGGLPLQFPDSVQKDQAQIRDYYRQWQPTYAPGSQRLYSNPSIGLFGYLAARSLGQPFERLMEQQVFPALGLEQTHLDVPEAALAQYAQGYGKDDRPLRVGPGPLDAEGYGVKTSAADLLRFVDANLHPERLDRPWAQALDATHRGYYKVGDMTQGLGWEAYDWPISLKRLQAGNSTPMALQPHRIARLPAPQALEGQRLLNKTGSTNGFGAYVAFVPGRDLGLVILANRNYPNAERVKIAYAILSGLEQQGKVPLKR
T1 sequence (Q8RLA6 22-275 limits assumed): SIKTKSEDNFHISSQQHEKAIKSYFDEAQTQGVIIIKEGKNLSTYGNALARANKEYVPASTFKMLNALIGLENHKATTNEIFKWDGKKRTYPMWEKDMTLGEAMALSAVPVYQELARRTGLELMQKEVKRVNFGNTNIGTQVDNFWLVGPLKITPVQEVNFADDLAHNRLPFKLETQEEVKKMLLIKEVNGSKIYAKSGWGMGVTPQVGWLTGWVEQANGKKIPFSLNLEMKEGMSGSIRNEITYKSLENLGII
T2 sequence (Q9EXV5 entry or part of it): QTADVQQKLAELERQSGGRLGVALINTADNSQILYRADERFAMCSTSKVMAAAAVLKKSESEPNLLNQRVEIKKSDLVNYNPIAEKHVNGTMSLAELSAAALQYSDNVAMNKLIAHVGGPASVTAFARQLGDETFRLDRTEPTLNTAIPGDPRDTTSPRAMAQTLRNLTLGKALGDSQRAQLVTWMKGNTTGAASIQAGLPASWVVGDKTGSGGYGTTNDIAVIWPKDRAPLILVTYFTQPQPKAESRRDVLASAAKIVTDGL
T4 sequence (Q9F663 25-293 limits assumed): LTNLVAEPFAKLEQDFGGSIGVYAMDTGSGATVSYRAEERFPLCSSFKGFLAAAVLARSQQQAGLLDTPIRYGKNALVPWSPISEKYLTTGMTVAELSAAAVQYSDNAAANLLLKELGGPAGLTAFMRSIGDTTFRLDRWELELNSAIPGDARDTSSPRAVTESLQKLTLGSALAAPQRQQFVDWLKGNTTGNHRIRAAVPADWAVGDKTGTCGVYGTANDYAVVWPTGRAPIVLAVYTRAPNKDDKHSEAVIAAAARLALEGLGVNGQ
Chain of NDM-1 (C7C422 29-270 limits assumed): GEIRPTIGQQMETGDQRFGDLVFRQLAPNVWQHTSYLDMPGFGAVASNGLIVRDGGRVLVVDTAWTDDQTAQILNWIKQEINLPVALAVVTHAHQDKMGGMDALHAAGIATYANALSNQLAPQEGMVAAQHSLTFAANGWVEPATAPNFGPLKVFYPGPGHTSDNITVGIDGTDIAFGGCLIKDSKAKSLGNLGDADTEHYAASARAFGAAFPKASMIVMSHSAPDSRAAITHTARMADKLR

Row | Compound | MIC of cefotaxime (CTX) in combination with compound [1] [µg/mL] | MIC of cefotaxime (CTX) in combination with compound [2] [µg/mL] | MIC of cefotaxime (CTX) in combination with compound [3] [µg/mL] | MIC of cefotaxime (CTX) in combination with compound [4] [µg/mL] | MIC of cefotaxime (CTX) in combination with compound [5] [µg/mL] | IC50 [6] [µM] | IC50 [7] [µM] | IC50 [8] | IC50 [9] [µM] | IC50 [10] | MIC of ceftazidime (CAZ) in combination with compound [11] [µg/mL] | MIC of ceftazidime (CAZ) in combination with compound [12] [µg/mL] | MIC of ceftazidime (CAZ) in combination with compound [13] [µg/mL] | MIC of ceftazidime (CAZ) in combination with compound [14] [µg/mL] | MIC of ceftazidime (CAZ) in combination with compound [15] [µg/mL] | MIC of ceftazidime (CAZ) in combination with compound [16] [µg/mL] | MIC of ceftazidime (CAZ) in combination with compound [17] [µg/mL] | MIC of ceftazidime (CAZ) in combination with compound [18] [µg/mL] | MIC of ceftazidime (CAZ) in combination with compound [19] [µg/mL] | IC50 [20] | also measured
1 | Cc1ccc2sc(B3OC(C)(C)C(C)(C)O3)cc2c1 [Compound 1] | 4 | 1024 | 64 | 1024 | 64 | 68.4 ± 14 | 113 ± 14.6 | 6.4 ± 1.52 µM | 72 ± 14.7 | 0.4 ± 0.08 µM | 64 | 16 | 4 | 4 | 4 | 64 | 16 | 8 | 4 | 5.9 ± 1.64 µM | MIC reduction of CTX (fold) ([1]; K. pneumoniae producing KPC-2, CTX combination): 32 fold; MIC reduction of CAZ (fold) ([11]; DHA-1-producing E. coli strain, CAZ combination): 8 fold; MIC decrease of CAZ (fold) / synergy ([16]; CAZ combination): 4 fold
2 | CC1(C)OB(c2cc3cc(CBr)ccc3s2)OC1(C)C [Compound 2] | 4 | 1024 | 64 | – | 64 | 64.6 ± 7.88 | 93 ± 18.4 | 8.3 ± 1.09 µM | 83.5 ± 3.35 | 0.2 ± 0.04 µM | 32 | 16 | 4 | 2 | 4 | – | 16 | 8 | 4 | 4.7 ± 2.04 µM | –
3 | NCc1ccc2sc(B(O)O)cc2c1 [Compound 3] | 4 | 32 | 64 | 8 | 64 | 60.7 ± 11.8 | 132 ± 20.9 | 5.2 ± 1.42 µM | 26.9 ± 7.07 | 0.16 ± 0.06 µM | 512 | 16 | 64 | 4 | – | 64 | 64 | 4 | 64 | 7.3 ± 1.82 µM | –
4 | CC(C)(C)OC(=O)c1cccc2cc(B3OC(C)(C)C(C)(C)O3)sc12 [Compound 4] | 4 | 1024 | 64 | 1024 | 64 | 35.7 ± 7.46 | 38 ± 7.64 | 4.49 µM and 4.5 µM | 20.2 ± 0.07 | 3.88 µM and 3.9 µM | 512 | 512 | 64 | 4 | – | – | 64 | 32 | 32 | 8.22 µM and 5.4 µM | –
5 | CC1(C)OB(c2cc3cccc(C(=O)O)c3s2)OC1(C)C [Compound 5] | 4 | 1024 | 16 | 1024 | 16 | 32.4 ± 7.14 | 23 ± 4.38 | 9.4 ± 3.48 µM | 27.7 ± 3.65 | 1.3 ± 0.01 µM | 512 | 64 | 32 | 4 | 32 | 64 | 16 | 32 | 16 | 5.38 µM and 8.2 µM | MIC reduction of CTX (fold) ([5]; E. coli producing CTX-M-15, CTX combination): 4 fold
6 | CC(C)(C)OC(=O)Nc1cccc2cc(B(O)O)sc12 [Compound 6] | 4 | 64 | 16 | – | 16 | 117 ± 9.72 | 88 ± 14 | 9.8 ± 3.34 µM | 103 ± 14.2 | 4.4 ± 0.83 µM | 512 | 64 | 64 | 4 | – | 64 | 64 | 64 | 64 | 2.25 µM and 2.3 µM | –
7 | AmpC (Pseudomonas aeruginosa PAO1) | – | – | – | – | – | – | – | – | – | – | – | – | – | – | – | – | – | – | – | – | Km [21, 22]: 33 ± 2 µM; kcat [21, 22]: 159 ± 32 s⁻¹; kcat/Km [21, 22]: 4.82e+06 M⁻¹ s⁻¹
8 | CTX-M-15 (Escherichia coli) | – | – | – | – | – | – | – | – | – | – | – | – | – | – | – | – | – | – | – | – | Km [21, 23]: 41 ± 3 µM; kcat [21, 23]: 35 ± 7 s⁻¹; kcat/Km [21, 23]: 850000 M⁻¹ s⁻¹
9 | OXA-24 (Acinetobacter baumannii) | – | – | – | – | – | – | – | – | – | – | – | – | – | – | – | – | – | – | – | – | Km [21, 24]: 20 ± 2 µM; kcat [21, 24]: 1000 ± 150 s⁻¹; kcat/Km [21, 24]: 5e+07 M⁻¹ s⁻¹
